The molecules below were run against T1, JAK2 (JH1domain-catalytic, Y1007F,Y1008F) kinase (Homo sapiens, UniProt O60674, Y1007F/Y1008F) (assay: JAK2 JH1 Domain Binding Assay). Settings: qPCR readout.
T1 construct: JAK2 (JH1domain-catalytic, Y1007F,Y1008F) kinase was expressed as N-terminal fusion; made in house; host or cells: transiently transfected HEK293 cells
T1 sequence (O60674 849-1124 Y1007F/Y1008F limits assumed): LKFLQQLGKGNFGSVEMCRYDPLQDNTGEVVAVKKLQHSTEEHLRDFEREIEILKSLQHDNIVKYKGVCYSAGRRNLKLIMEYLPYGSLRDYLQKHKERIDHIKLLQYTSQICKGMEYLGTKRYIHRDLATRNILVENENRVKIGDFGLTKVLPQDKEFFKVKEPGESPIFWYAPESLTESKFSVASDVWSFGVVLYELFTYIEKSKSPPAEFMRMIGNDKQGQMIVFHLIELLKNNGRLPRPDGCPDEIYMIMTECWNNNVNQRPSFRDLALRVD

Kd [nM]	Structure (SMILES)
< 10	Cc1n[nH]c2ncc(Oc3cnc4nc(Nc5cc(C(F)(F)F)cn(C)c5=O)n(C)c4c3C#N)cc12 [Example I-341, 1-methyl-6-((3-methyl-1H-pyrazolo[3,4-b]pyridin-5-yl)oxy)-2-((1-methyl-2-oxo-5-(trifluoromethyl)-1,2-dihydropyridin-3-yl)amino)-1H-imidazo[4,5-b]pyridine-7-carbonitrile]
10 to 50	Cn1c(Nc2ccc(CN3CCCC3)c(C(F)(F)F)c2)nc2ncc(Oc3cnn4ccncc34)c(C#N)c21 [Example I-342, 1-methyl-6-(pyrazolo[1,5-a]pyrazin-3-yloxy)-2-((4-(pyrrolidin-1-ylmethyl)-3-(trifluoromethyl)phenyl)amino)-1H-imidazo[4,5-b]pyridine-7-carbonitrile]
10 to 50	CCn1c(C(C)(C)C)ncc(Nc2nc3ncc(Oc4cnn5cc(NC)ncc45)c(Cl)c3n2C)c1=O [Example I-345, 2-(tert-butyl)-5-((7-chloro-1-methyl-6-((6-(methylamino)pyrazolo[1,5-a]pyrazin-3-yl)oxy)-1H-imidazo[4,5-b]pyridin-2-yl)amino)-3-ethylpyrimidin-4(3H)-one]
10 to 50	CNc1cn2ncc(Oc3cnc4nc(Nc5cc(C(C)(C)C)n([C@H]6CCN(C)C6)n5)n(C)c4c3Cl)c2cn1 [Example I-346, (S)—N-(5-(tert-butyl)-1-(1-methylpyrrolidin-3-yl)-1H-pyrazol-3-yl)-7-chloro-1-methyl-6-((6-(methylamino)pyrazolo[1,5-a]pyrazin-3-yl)oxy)-1H-imidazo[4,5-b]pyridin-2-amine]
50 to 1000	CNc1cn2ncc(Oc3cnc4nc(Nc5cc(C(C)(C)C)n([C@@H]6CCN(C)C6)n5)n(C)c4c3Cl)c2cn1 [Example I-347, (R)—N-(5-(tert-butyl)-1-(1-methylpyrrolidin-3-yl)-1H-pyrazol-3-yl)-7-chloro-1-methyl-6-((6-(methylamino)pyrazolo[1,5-a]pyrazin-3-yl)oxy)-1H-imidazo[4,5-b]pyridin-2-amine]
10 to 50	CNc1cn2ncc(Oc3cnc4nc(Nc5cc(C(=O)N(C)C)c(F)c(C(F)(F)F)c5)n(C)c4c3Cl)c2cn1 [Example I-348, 5-((7-chloro-1-methyl-6-((6-(methylamino)pyrazolo[1,5-a]pyrazin-3-yl)oxy)-1H-imidazo[4,5-b]pyridin-2-yl)amino)-2-fluoro-N,N-dimethyl-3-(trifluoromethyl)benzamide]
< 10	COc1c[nH]c2ncc(Oc3cnc4nc(Nc5cc(C(F)(F)F)cn(C)c5=O)n(C)c4c3C#N)cc12 [Example I-349, 6-((3-methoxy-1H-pyrrolo[2,3-b]pyridin-5-yl)oxy)-1-methyl-2-((1-methyl-2-oxo-5-(trifluoromethyl)-1,2-dihydropyridin-3-yl)amino)-1H-imidazo[4,5-b]pyridine-7-carbonitrile]
10 to 50	CNc1cn2ncc(Oc3cnc4nc(Nc5cc(N6CCN(C)CC6)cc(C(F)(F)F)c5)n(C)c4c3Cl)c2cn1 [Example I-351, 7-chloro-1-methyl-6-((6-(methylamino)pyrazolo[1,5-a]pyrazin-3-yl)oxy)-N-(3-(4-methylpiperazin-1-yl)-5-(trifluoromethyl)phenyl)-1H-imidazo[4,5-b]pyridin-2-amine]
< 10	CNc1cn2ncc(Oc3cnc4nc(Nc5cc(C6CCN(C)CC6)cc(C(F)(F)F)c5)n(C)c4c3Cl)c2cn1 [Example I-353, 7-chloro-1-methyl-6-((6-(methylamino)pyrazolo[1,5-a]pyrazin-3-yl)oxy)-N-(3-(1-methylpiperidin-4-yl)-5-(trifluoromethyl)phenyl)-1H-imidazo[4,5-b]pyridin-2-amine]
< 10	CNc1cc(F)c2c(Oc3cnc4nc(Nc5cc(C(F)(F)F)cn(C)c5=O)n(C)c4c3Cl)cnn2c1 [Example I-354, 3-((7-chloro-6-((4-fluoro-6-(methylamino)pyrazolo[1,5-a]pyridin-3-yl)oxy)-1-methyl-1H-imidazo[4,5-b]pyridin-2-yl)amino)-1-methyl-5-(trifluoromethyl)pyridin-2(1H)-one]
< 10	COCCOc1ccc2c(Oc3cnc4nc(Nc5cc(C(F)(F)F)cn(C)c5=O)n(C)c4c3Cl)cnn2c1 [Example I-355, 3-((7-chloro-6-((6-(2-methoxyethoxy)pyrazolo[1,5-a]pyridin-3-yl)oxy)-1-methyl-1H-imidazo[4,5-b]pyridin-2-yl)amino)-1-methyl-5-(trifluoromethyl)pyridin-2(1H)-one]
10 to 50	CNc1cn2ncc(Oc3cnc4nc(Nc5cc(CN6CC7(COC7)C6)cc(C(F)(F)F)c5)n(C)c4c3Cl)c2cn1 [Example I-356, N-(3-((2-oxa-6-azaspiro[3.3]heptan-6-yl)methyl)-5-(trifluoromethyl)phenyl)-7-chloro-1-methyl-6-((6-(methylamino)pyrazolo[1,5-a]pyrazin-3-yl)oxy)-1H-imidazo[4,5-b]pyridin-2-amine]
50 to 1000	CNc1cn2ncc(Oc3cnc4nc(Nc5cc(CN6CCC6)cc(C(F)(F)F)c5)n(C)c4c3Cl)c2cn1 [Example I-357, N-(3-(azetidin-1-ylmethyl)-5-(trifluoromethyl)phenyl)-7-chloro-1-methyl-6-((6-(methylamino)pyrazolo[1,5-a]pyrazin-3-yl)oxy)-1H-imidazo[4,5-b]pyridin-2-amine]
50 to 1000	CNc1cn2ncc(Oc3cnc4nc(Nc5cc(CN6CC(F)C6)cc(C(F)(F)F)c5)n(C)c4c3Cl)c2cn1 [Example I-358, 7-chloro-N-(3-((3-fluoroazetidin-1-yl)methyl)-5-(trifluoromethyl)phenyl)-1-methyl-6-((6-(methylamino)pyrazolo[1,5-a]pyrazin-3-yl)oxy)-1H-imidazo[4,5-b]pyridin-2-amine]
50 to 1000	CNc1cn2ncc(Oc3cnc4nc(Nc5ccc(CN6CC[C@H](OC)C6)c(C(F)(F)F)c5)n(C)c4c3Cl)c2cn1 [Example I-360, (S)-7-chloro-N-(4-((3-methoxypyrrolidin-1-yl)methyl)-3-(trifluoromethyl)phenyl)-1-methyl-6-((6-(methylamino)pyrazolo[1,5-a]pyrazin-3-yl)oxy)-1H-imidazo[4,5-b]pyridin-2-amine]
50 to 1000	CNc1cn2ncc(Oc3cnc4nc(Nc5ccc(CN6CC[C@@H](OC)C6)c(C(F)(F)F)c5)n(C)c4c3Cl)c2cn1 [Example I-361, (R)-7-chloro-N-(4-((3-methoxypyrrolidin-1-yl)methyl)-3-(trifluoromethyl)phenyl)-1-methyl-6-((6-(methylamino)pyrazolo[1,5-a]pyrazin-3-yl)oxy)-1H-imidazo[4,5-b]pyridin-2-amine]
10 to 50	Cn1c(Nc2cc3n(n2)CCCC3(F)F)nc2ncc(Oc3cnn4ccncc34)c(C#N)c21 [Example I-362, 2-((4,4-difluoro-4,5,6,7-tetrahydropyrazolo[1,5-a]pyridin-2-yl)amino)-1-methyl-6-(pyrazolo[1,5-a]pyrazin-3-yloxy)-1H-imidazo[4,5-b]pyridine-7-carbonitrile]
10 to 50	COc1cn2ncc(Oc3cnc4nc(Nc5cc(C(F)(F)F)cn(C)c5=O)n(C)c4c3Cl)c2cn1 [Example I-363, 3-((7-chloro-6-((6-methoxypyrazolo[1,5-a]pyrazin-3-yl)oxy)-1-methyl-1H-imidazo[4,5-b]pyridin-2-yl)amino)-1-methyl-5-(trifluoromethyl)pyridin-2(1H)-one]
